# Test results from ChEMBL document CHEMBL4308841, “Synthesis, in vitro antiproliferative activity, and kinase inhibitory effects of pyrazole-containing diarylureas and diarylamides” (Eur J Med Chem, 2018).
# What was measured:
# 786-0 = assay: Growth inhibition of human 786-0 cells incubated for 48 hrs by sulforhodamine B assay; format: functional, cell-based; conditions: 786-0, 48 h
# U-251 = assay: Growth inhibition of human U251 cells assessed as cell growth at 0.01 uM incubated for 48 hrs by sulforhodamine B assay relative to control; format: functional; conditions: U-251, 48 h, read-out: Activity
# NCI-H522 = assay: Growth inhibition of human NCI-H522 cells assessed as cell growth at 100 uM incubated for 48 hrs by sulforhodamine B assay relative to control; format: functional; conditions: NCI-H522, 48 h, read-out: Activity
# MOLT-4 = assay: Growth inhibition of human MOLT4 cells incubated for 48 hrs by sulforhodamine B assay; format: functional, cell-based; conditions: MOLT-4, 48 h
# HOP-62 = assay: Growth inhibition of human HOP62 cells assessed as cell growth at 0.01 uM incubated for 48 hrs by sulforhodamine B assay relative to control; format: functional; conditions: HOP-62, 48 h, read-out: Activity
# SR = assay: Growth inhibition of human SR cells incubated for 48 hrs by sulforhodamine B assay; format: functional, cell-based
# SF-539 = assay: Growth inhibition of human SF539 cells incubated for 48 hrs by sulforhodamine B assay; format: functional, cell-based; conditions: SF-539, 48 h
# SN12C = assay: Growth inhibition of human SN12C cells assessed as cell growth at 100 uM incubated for 48 hrs by sulforhodamine B assay relative to control; format: functional; conditions: read-out: Activity
# MCF7 = assay: Growth inhibition of human MCF7 cells incubated for 48 hrs by sulforhodamine B assay; format: functional, cell-based; conditions: MCF7, 48 h
# UO-31 = assay: Growth inhibition of human UO31 cells assessed as cell growth at 0.1 uM incubated for 48 hrs by sulforhodamine B assay relative to control; format: functional; conditions: UO-31, 48 h, read-out: Activity
# Malme-3M = assay: Growth inhibition of human MALME-3M cells assessed as cell growth at 100 uM incubated for 48 hrs by sulforhodamine B assay relative to control; format: functional; conditions: read-out: Activity
# SK-MEL-2 = assay: Growth inhibition of human SK-MEL-2 cells incubated for 48 hrs by sulforhodamine B assay; format: functional, cell-based; conditions: SK-MEL-2, 48 h
# A549 = assay: Growth inhibition of human A549/ATCC cells assessed as cell growth at 100 uM incubated for 48 hrs by sulforhodamine B assay relative to control; format: functional; conditions: A549, 48 h, read-out: Activity
# SNB-75 = assay: Growth inhibition of human SNB75 cells assessed as cell growth at 1 uM incubated for 48 hrs by sulforhodamine B assay relative to control; format: functional; conditions: SNB-75, 48 h, read-out: Activity
# M14 [1] = assay: Growth inhibition of human M14 cells assessed as cell growth at 0.1 uM incubated for 48 hrs by sulforhodamine B assay relative to control; format: functional; conditions: M14, 48 h, read-out: Activity
# M14 [2] = assay: Growth inhibition of human M14 cells assessed as cell growth at 1 uM incubated for 48 hrs by sulforhodamine B assay relative to control; format: functional; conditions: M14, 48 h, read-out: Activity
# NCI-H460 = assay: Growth inhibition of human NCI-H460 cells assessed as cell growth at 0.1 uM incubated for 48 hrs by sulforhodamine B assay relative to control; format: functional; conditions: NCI-H460, 48 h, read-out: Activity
# SK-MEL-28 = assay: Growth inhibition of human SK-MEL-28 cells assessed as cell growth at 100 uM incubated for 48 hrs by sulforhodamine B assay relative to control; format: functional; conditions: SK-MEL-28, 48 h, read-out: Activity
# SF-268 [3] = assay: Growth inhibition of human SF268 cells incubated for 48 hrs by sulforhodamine B assay; format: functional, cell-based; conditions: SF-268, 48 h
# NCI-H226 = assay: Growth inhibition of human NCI-H226 cells incubated for 48 hrs by sulforhodamine B assay; format: functional, cell-based; conditions: NCI-H226, 48 h
# SF-268 [4] = assay: Growth inhibition of human SF268 cells assessed as cell growth at 100 uM incubated for 48 hrs by sulforhodamine B assay relative to control; format: functional; conditions: SF-268, 48 h, read-out: Activity
# OVCAR-4 = assay: Growth inhibition of human OVCAR4 cells assessed as cell growth at 1 uM incubated for 48 hrs by sulforhodamine B assay relative to control; format: functional; conditions: OVCAR-4, 48 h, read-out: Activity
# SK-MEL-5 [5] = assay: Growth inhibition of human SK-MEL-5 cells incubated for 48 hrs by sulforhodamine B assay; format: functional, cell-based; conditions: SK-MEL-5, 48 h
# OVCAR-5 = assay: Growth inhibition of human OVCAR5 cells assessed as cell growth at 1 uM incubated for 48 hrs by sulforhodamine B assay relative to control; format: functional; conditions: OVCAR-5, 48 h, read-out: Activity
# SK-MEL-5 [6] = assay: Growth inhibition of human SK-MEL-5 cells assessed as cell growth at 1 uM incubated for 48 hrs by sulforhodamine B assay relative to control; format: functional; conditions: SK-MEL-5, 48 h, read-out: Activity
# BT-549 [7] = assay: Growth inhibition of human BT549 cells assessed as cell growth at 1 uM incubated for 48 hrs by sulforhodamine B assay relative to control; format: functional; conditions: BT-549, 48 h, read-out: Activity
# BT-549 [8] = assay: Growth inhibition of human BT549 cells incubated for 48 hrs by sulforhodamine B assay; format: functional, cell-based; conditions: BT-549, 48 h
# [9] = read-out: LC50 (the source's name)
# [10] = read-out: pLC50 (the source's name) (converted)
smiles,measurement,setting,value
COc1cc(Cl)cc(-c2nn(-c3cccc(NC(=O)Nc4cc(C(F)(F)F)cc(C(F)(F)F)c4)c3)cc2-c2ccncc2)c1,IC50,786-0,0.57 µM
same,GI50,786-0; read-out: GI50,0.558 µM
same,CC50,786-0; [9],0.0631 µM
same,TGI,786-0; read-out: TGI,2.17 µM
same,GI50,786-0; read-out: pGI50 (converted),0.562 µM
same,CC50,786-0; [10],6.31 µM
same,TGI,786-0; read-out: pTGI (converted),2.19 µM
same,growth at 0.01 µM,U-251,96%
same,growth at 100 µM,NCI-H522,-69%
same,IC50,MOLT-4,0.31 µM
same,GI50,MOLT-4; read-out: GI50,0.306 µM
same,CC50,MOLT-4; [9],> 100 µM
same,TGI,MOLT-4; read-out: TGI,1.64 µM
same,GI50,MOLT-4; read-out: pGI50 (converted),0.302 µM
same,CC50,MOLT-4; [10],> 100 µM
same,TGI,MOLT-4; read-out: pTGI (converted),1.62 µM
same,growth at 0.01 µM,HOP-62,93%
same,IC50,SR,0.45 µM
same,GI50,SR; read-out: GI50,0.452 µM
same,CC50,SR; [9],> 100 µM
same,TGI,SR; read-out: TGI,3.31 µM
same,GI50,SR; read-out: pGI50 (converted),0.447 µM
same,CC50,SR; [10],> 100 µM
same,TGI,SR; read-out: pTGI (converted),3.31 µM
same,IC50,SF-539,1.41 µM
same,CC50,SF-539; [9],0.055 µM
same,TGI,SF-539; read-out: TGI,3.49 µM
same,GI50,SF-539; read-out: pGI50 (converted),1.41 µM
same,CC50,SF-539; [10],8.71 µM
same,TGI,SF-539; read-out: pTGI (converted),3.55 µM
same,growth at 100 µM,SN12C,-61%
same,IC50,MCF7,0.38 µM
same,GI50,MCF7; read-out: GI50,0.354 µM
same,LC50,MCF7; read-out: LC50,> 100 µM
same,TGI,MCF7; read-out: TGI,9.32 µM
same,GI50,MCF7; read-out: pGI50 (converted),0.38 µM
same,LC50,MCF7; read-out: pLC50 (converted),> 100 µM
same,TGI,MCF7; read-out: pTGI (converted),9.33 µM
same,growth at 0.1 µM,UO-31,75%
same,growth at 100 µM,Malme-3M,-39%
same,IC50,SK-MEL-2,0.66 µM
same,GI50,SK-MEL-2; read-out: GI50,0.658 µM
same,TGI,SK-MEL-2; read-out: TGI,2.7 µM
same,GI50,SK-MEL-2; read-out: pGI50 (converted),0.661 µM
same,CC50,SK-MEL-2; [10],9.33 µM
same,TGI,SK-MEL-2; read-out: pTGI (converted),2.69 µM
same,growth at 100 µM,A549,-68%
same,growth at 1 µM,SNB-75,48%
same,growth at 0.1 µM,M14 [1],93%
same,growth at 1 µM,M14 [2],25%
same,growth at 0.1 µM,NCI-H460,101%
same,growth at 100 µM,SK-MEL-28,-58%
same,IC50,SF-268 [3],0.62 µM
same,GI50,SF-268 [3]; read-out: GI50,0.618 µM
same,CC50,SF-268 [3]; [9],0.0307 µM
same,TGI,SF-268 [3]; read-out: TGI,3.25 µM
same,GI50,SF-268 [3]; read-out: pGI50 (converted),0.617 µM
same,CC50,SF-268 [3]; [10],30.9 µM
same,TGI,SF-268 [3]; read-out: pTGI (converted),3.24 µM
same,IC50,NCI-H226,0.7 µM
same,GI50,NCI-H226; read-out: GI50,0.704 µM
same,LC50,NCI-H226; read-out: LC50,> 100 µM
same,TGI,NCI-H226; read-out: TGI,5.17 µM
same,GI50,NCI-H226; read-out: pGI50 (converted),0.708 µM
same,LC50,NCI-H226; read-out: pLC50 (converted),> 100 µM
same,TGI,NCI-H226; read-out: pTGI (converted),5.13 µM
same,growth at 100 µM,SF-268 [4],-88%
same,growth at 1 µM,OVCAR-4,30%
same,IC50,SK-MEL-5 [5],1.14 µM
same,GI50,SK-MEL-5 [5]; read-out: GI50,1.14 µM
same,CC50,SK-MEL-5 [5]; [9],0.0504 µM
same,TGI,SK-MEL-5 [5]; read-out: TGI,2.39 µM
same,GI50,SK-MEL-5 [5]; read-out: pGI50 (converted),1.15 µM
same,CC50,SK-MEL-5 [5]; [10],5.01 µM
same,TGI,SK-MEL-5 [5]; read-out: pTGI (converted),2.4 µM
same,growth at 1 µM,OVCAR-5,59%
same,growth at 1 µM,SK-MEL-5 [6],50%
same,growth at 1 µM,BT-549 [7],54%
same,IC50,BT-549 [8],2.22 µM
same,GI50,BT-549 [8]; read-out: GI50,2.22 µM
same,TGI,BT-549 [8]; read-out: TGI,7.14 µM
same,GI50,BT-549 [8]; read-out: pGI50 (converted),2.82 µM
same,CC50,BT-549 [8]; [10],61.7 µM
same,TGI,BT-549 [8]; read-out: pTGI (converted),7.08 µM
